Reference: patent publication US20100183699A1, “COMPOSITIONS AND METHODS TO CROSS LINK POLYMER FIBERS” (priority 2009, published 2010)
“Also recorded” adds a separate entry of the source. Where two headings read alike, the source gives them in different places.

Legend:
[1] = literature reports on alternative crosslinkers, cited from earlier work
[2] = SEM fiber morphology after exposure to aqueous environment (water, DMEM); format: physicochemical; details: genipin 0.03-0.1 M in absolute ethanol or isopropanol, crosslinking for 5 days
Protocol: All samples were imaged using a Scanning Electron Microscope (Leo 1530) and diameters of 100 randomly selected fibers were measured, per sample, using image processing software (ImageJ). One-way ANOVA using the Tukey test was used to compare the difference between the diameters of crosslinked samples (Dcrosslink) and after exposure to growth media for 1 and 3 days (Dfinal). If a significant difference existed, the percent swelling was then calculated using the equation: […]
The experimental parameters investigated were: solvent (isopropanol, ethanol), water content (0%, 1%, 3% and 5%) and reaction time (1, 3 and 5 days). All electrospun collagen fiber samples were exposed to air and the reaction temperature was maintained at 37° C. in an incubator. The genipin concentration was fixed at 11.3 mg of genipin per mg of collagen, which was sufficient for the crosslinking reaction to reach completion (Yao, C. H., et al., Materials Chemistry and Physics 2004, 83, (2-3), 204-208). After crosslinking, the collagen samples were washed in ethanol or isopropanol (depending on the solvent used) for further characterization.

[3] = test system: cells; details: cited from earlier work; for cytotoxicity: crosslinking agent

CCN=C=NCCCN(C)C [EDC, 1-ethyl-3-(3-dimethylaminopropyl) carbodiimide]
swelling / morphology of crosslinked collagen fibers in water [1]: significant degree of swelling

O=C1CCC(=O)N1O [NHS, N-hydroxysuccinimide]
swelling / morphology of crosslinked collagen fibers in water [1]: significant degree of swelling

COC(=O)C1=CO[C@@H](O)[C@@H]2C(CO)=CC[C@H]12 [genipin]
morphology and overall architecture of collagen nanofibers after exposure to water [2]: failed to maintain the morphology
cell proliferation ([3]; compared to glutaraldehyde): more stimulative to cell proliferation
cytotoxicity [3]: low cytotoxicity

O=CCCCC=O [glutaraldehyde, Glutaraldehyde]
swelling / morphology of crosslinked collagen fibers in water [1]: not very effective in controlling its swelling properties
swelling / morphology of crosslinked collagen fibers in water ([1]; listed as GA): failed to maintain collagen fiber morphology; also recorded: swell significantly in water
cytotoxicity [3]: highly cytotoxic
